Assay results as given in ChEMBL document CHEMBL1201862, “PubChem BioAssay data set” (2004).
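Cultured in 96-well plates, cells were exposed to test compound for 48 hours across five concentrations. The concentration for 50% growth inhibition is given as GI50.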 The source made the active and inactive calls. Rule as the data show it: active = GI50 up to about 1.1 µM and inactive = higher.

Key:
Assay in all cases: NCI anticancer screen, dose series, 48 h
A498 = tested on: A498
HCC 2998 = tested on: HCC 2998
HCT-15 = tested on: HCT-15
HOP-62 = tested on: HOP-62
HT-29 = tested on: HT-29
LOX IMVI = tested on: LOX IMVI
MOLT-4 = tested on: MOLT-4
NCI-H226 = tested on: NCI-H226
NCI-H23 = tested on: NCI-H23
NCI-H522 = tested on: NCI-H522
SK-MEL-2 = tested on: SK-MEL-2
SK-MEL-5 = tested on: SK-MEL-5
SK-OV-3 = tested on: SK-OV-3
SN12C = tested on: SN12C
SNB-19 = tested on: SNB-19
SNB-75 = tested on: SNB-75
TK-10 = tested on: TK-10
UO-31 = tested on: UO-31

CON1C(=O)C2(CCCCC2)C(=O)C12C=CC(C)CC2 (centres undefined)
GI50 (A498): > 100 µM (inactive)
GI50 (HCC 2998): > 100 µM (inactive)
GI50 (HCT-15): > 100 µM
GI50 (HOP-62): > 100 µM (inactive)
GI50 (HT-29): 62.5 µM (inactive)
GI50 (LOX IMVI): > 100 µM (inactive)
GI50 (MOLT-4): 78.9 µM (inactive)
GI50 (NCI-H226): 76.6 µM (inactive)
GI50 (NCI-H23): > 100 µM (inactive)
GI50 (NCI-H522): 95.1 µM (inactive)
GI50 (SK-MEL-2): > 100 µM (inactive)
GI50 (SK-MEL-5): 38 µM (inactive)
GI50 (SK-OV-3): > 100 µM (inactive)
GI50 (SN12C): > 100 µM (inactive)
GI50 (SNB-19): > 100 µM (inactive)
GI50 (SNB-75): > 100 µM (inactive)
GI50 (TK-10): > 100 µM (inactive)
GI50 (UO-31): 47.4 µM (inactive)

CC1=C(C(=O)Nc2ccc([N+](=O)[O-])cc2)C(c2cccc([N+](=O)[O-])c2)C(C(=O)Nc2ccc([N+](=O)[O-])cc2)=C(C)N1
GI50 (A498): 32.8 µM (inactive)
GI50 (HCC 2998): 25.6 µM (inactive)
GI50 (HCT-15): 61.7 µM
GI50 (HOP-62): 64.3 µM (inactive)
GI50 (HT-29): 21.9 µM (inactive)
GI50 (LOX IMVI): 11.1 µM (inactive)
GI50 (MOLT-4): 5.35 µM (inactive)
GI50 (NCI-H226): 58.3 µM (inactive)
GI50 (NCI-H23): 13.3 µM (inactive)
GI50 (NCI-H522): 20.5 µM (inactive)
GI50 (SK-MEL-2): 33.1 µM (inactive)
GI50 (SK-OV-3): 8.45 µM (inactive)
GI50 (SN12C): 30.5 µM (inactive)
GI50 (SNB-19): 52.7 µM (inactive)
GI50 (SNB-75): 23.7 µM (inactive)
GI50 (TK-10): 37.5 µM (inactive)
GI50 (UO-31): > 100 µM (inactive)

CC(C)(C)C1CCC2(CC1)c1[nH]c3ccccc3c1C1(CCC(C(C)(C)C)CC1)c1[nH]c3ccccc3c12 (centres undefined)
GI50 (A498): > 100 µM (inactive)
GI50 (HCC 2998): > 100 µM (inactive)
GI50 (HCT-15): > 100 µM
GI50 (HOP-62): > 100 µM (inactive)
GI50 (HT-29): > 100 µM (inactive)
GI50 (LOX IMVI): > 100 µM (inactive)
GI50 (MOLT-4): > 100 µM (inactive)
GI50 (NCI-H226): > 100 µM (inactive)
GI50 (NCI-H23): > 100 µM (inactive)
GI50 (NCI-H522): > 100 µM (inactive)
GI50 (SK-MEL-2): > 100 µM (inactive)
GI50 (SK-MEL-5): > 100 µM (inactive)
GI50 (SK-OV-3): > 100 µM (inactive)
GI50 (SN12C): > 100 µM (inactive)
GI50 (SNB-19): > 100 µM (inactive)
GI50 (SNB-75): 70.1 µM (inactive)
GI50 (TK-10): > 100 µM (inactive)
GI50 (UO-31): > 100 µM (inactive)

C1CCN(C2OC3C(COC3N3CCCCC3)OC2OC2CCO[C@@H]2N2CCCCC2)CC1 (some centres undefined)
GI50 (A498): 34.1 µM (inactive)
GI50 (HCC 2998): > 100 µM (inactive)
GI50 (HCT-15): 29.5 µM
GI50 (HOP-62): 36.2 µM (inactive)
GI50 (HT-29): 89.1 µM (inactive)
GI50 (LOX IMVI): 75 µM (inactive)
GI50 (MOLT-4): 15.8 µM (inactive)
GI50 (NCI-H226): 20 µM (inactive)
GI50 (NCI-H23): 21.1 µM (inactive)
GI50 (NCI-H522): 12.4 µM (inactive)
GI50 (SK-MEL-2): 20.8 µM (inactive)
GI50 (SK-MEL-5): 25.2 µM (inactive)
GI50 (SK-OV-3): 32.6 µM (inactive)
GI50 (SN12C): 43.1 µM (inactive)
GI50 (SNB-19): 36.2 µM (inactive)
GI50 (SNB-75): 9.98 µM (inactive)
GI50 (TK-10): 80.9 µM (inactive)
GI50 (UO-31): 44.5 µM (inactive)

O=C1C2Cc3ccccc3CN2C(=O)N1CN1CCN(CN2C(=O)C3Cc4ccccc4CN3C2=O)CC1 (centres undefined)
GI50 (A498): > 100 µM (inactive)
GI50 (HCC 2998): > 100 µM (inactive)
GI50 (HCT-15): > 100 µM
GI50 (HOP-62): > 100 µM (inactive)
GI50 (HT-29): > 100 µM (inactive)
GI50 (LOX IMVI): > 100 µM (inactive)
GI50 (MOLT-4): > 100 µM (inactive)
GI50 (NCI-H226): > 100 µM (inactive)
GI50 (NCI-H23): > 100 µM (inactive)
GI50 (NCI-H522): > 100 µM (inactive)
GI50 (SK-MEL-2): > 100 µM (inactive)
GI50 (SK-MEL-5): > 100 µM (inactive)
GI50 (SK-OV-3): > 100 µM (inactive)
GI50 (SN12C): > 100 µM (inactive)
GI50 (SNB-19): > 100 µM (inactive)
GI50 (SNB-75): > 100 µM (inactive)
GI50 (TK-10): > 100 µM (inactive)
GI50 (UO-31): > 100 µM (inactive)

CCOC(=O)C(NC(=O)c1nc[nH]c1/N=N/N(C)C)C(C)C (centres undefined)
GI50 (A498): > 100 µM (inactive)
GI50 (HCC 2998): > 100 µM (inactive)
GI50 (HCT-15): > 100 µM
GI50 (HOP-62): > 100 µM (inactive)
GI50 (HT-29): > 100 µM (inactive)
GI50 (LOX IMVI): > 100 µM (inactive)
GI50 (MOLT-4): > 100 µM (inactive)
GI50 (NCI-H226): > 100 µM (inactive)
GI50 (NCI-H23): > 100 µM (inactive)
GI50 (NCI-H522): > 100 µM (inactive)
GI50 (SK-MEL-2): > 100 µM (inactive)
GI50 (SK-MEL-5): > 100 µM (inactive)
GI50 (SK-OV-3): > 100 µM (inactive)
GI50 (SN12C): > 100 µM (inactive)
GI50 (SNB-19): > 100 µM (inactive)
GI50 (SNB-75): > 100 µM (inactive)
GI50 (TK-10): > 100 µM (inactive)
GI50 (UO-31): > 100 µM (inactive)

O=c1ccn(C2(CO)C=C(CO)C(O)C2O)c(=O)[nH]1 (centres undefined)
GI50 (A498): > 25.7 µM (inactive)
GI50 (HCC 2998): > 25.7 µM (inactive)
GI50 (HCT-15): > 25.7 µM
GI50 (HOP-62): > 25.7 µM (inactive)
GI50 (MOLT-4): > 25.7 µM (inactive)
GI50 (NCI-H226): > 25.7 µM (inactive)
GI50 (NCI-H522): > 25.7 µM (inactive)
GI50 (SK-MEL-2): > 25.7 µM (inactive)
GI50 (SK-MEL-5): > 25.7 µM (inactive)
GI50 (SK-OV-3): > 25.7 µM (inactive)
GI50 (SN12C): > 25.7 µM (inactive)
GI50 (SNB-19): > 25.7 µM (inactive)
GI50 (SNB-75): > 25.7 µM (inactive)
GI50 (TK-10): > 25.7 µM (inactive)
GI50 (UO-31): > 25.7 µM (inactive)

COc1ccc2c([nH]c3c(O)c(-c4c(C)cc5c([nH]c6c(CC=C(C)C)c(OC)ccc65)c4O)c(C)cc32)c1CC=C(C)C [BISMURRAYAFOLINE B]
GI50 (A498): > 100 µM (inactive)
GI50 (HCC 2998): > 100 µM (inactive)
GI50 (HCT-15): > 100 µM
GI50 (HOP-62): > 100 µM (inactive)
GI50 (HT-29): > 100 µM (inactive)
GI50 (LOX IMVI): > 100 µM (inactive)
GI50 (MOLT-4): > 100 µM (inactive)
GI50 (NCI-H23): > 100 µM (inactive)
GI50 (NCI-H522): > 100 µM (inactive)
GI50 (SK-MEL-2): > 100 µM (inactive)
GI50 (SK-MEL-5): > 100 µM (inactive)
GI50 (SK-OV-3): > 100 µM (inactive)
GI50 (SN12C): > 100 µM (inactive)
GI50 (SNB-19): > 100 µM (inactive)
GI50 (SNB-75): > 100 µM (inactive)
GI50 (TK-10): > 100 µM (inactive)
GI50 (UO-31): > 100 µM (inactive)
